The values below are quoted from earlier work in patent publication US4312857A, “Novel derivatives of beta-endorphin, intermediates therefor and compositions and methods employing said derivatives” (The United States of America as represented by the Veterans, priority 1977, dated 1982).

In series [1] the test system is partially purified brain opiate receptor sites.
Another series has as its system rat. The conditions noted are these: injected directly into the brain of the rat.

As for “H-Tyr-Gly-Gly-Phe-Met-OH [methionine enkephalin]”, the “binding to partially purified brain opiate receptor sites” value in series [1] is reported as “binds stereo-specifically”. Moreover, in the series on rat, the analgesic effect result is recorded as “weak analgesic agent of short duration”.
